Counter-ions that a name gives are not always drawn.

What is called inhibition is the change of the read-out against control, counted positive when it falls. As a reminder, the % inhibition is the relative decrease from the control value, in per cent. A lower % inhibition goes with a response near the control.

The first assay concerns the target T1, Rat brain protein farnesyltransferase (Rattus norvegicus, UniProt Q02293+Q04631).
T1 construct: The enzyme is purified according to Reiss, Y., et al., Cell, 62: 81-88 (1990), utilizing steps one through three; from tissue; host or cells: rat brain
As to the kind of experiment: In vitro inhibition of protein farnesyltransferase, Amersham scintillation proximity assay with biotin-K Ras B fragment. The note with it: Inhibition of farnesyltransferase; compound at 1 × 10^−5 M (Table 1). It is filed as biochemical. An excerpt:
The ability of the compounds of the invention to inhibit protein farnesyltransferase or protein geranylgeranyltransferase can be measured according to the method of Moores, et al., J. Biol. Chem. 266: 14603 (1991) or the method of Vogt, et al., J. Biol. Chem. 270:660-664 (1995). In addition, procedures for determination of the inhibition of farnesylation of the oncogene protein Ras are described by Goldstein, et al., J. Biol. Chem., 266:15575-15578 (1991) and by Singh in U.S. Pat. No. 5,245,061.
In addition, in vitro inhibition of protein farnesyltransferase may be measured by the following procedure. Rat brain protein farnesyltransferase activity is measured using an Amersham Life Science commercial scintillation proximity assay kit and substituting a biotin-K Ras B fragment (biotin-[…]Ue-Met-CO2H), 0.1 mM final concentration, for the biotin-lamin substrate provided by Amersham. The enzyme is purified according to Reiss, Y., et al., Cell, 62: 81-88 (1990), utilizing steps one through three. […]
The % inhibition of protein farnesyltransferase was determined for representative compounds of the invention.
A general note: SPA uses beads or plates that emit light when radiolabelled molecules are held near them.
Compound `CSCC[C@H](NC(=O)c1ccc(NC(=O)c2cccnc2)cc1-c1ccccc1)C(=O)O` [Example 200, [4-(3-Pyridylcarbonylamino)-2-phenylbenzoyl]methionine Hydrochloride] came in with an inhibition at 10 µM of 93%.

The same assay, now with this note: Inhibition of farnesyltransferase; compound at 1 × 10^−6 M (Table 2).
`CSCC[C@H](NC(=O)c1ccc(COc2cccnc2)cc1-c1ccc(C)cc1)C(=O)O` [Example 206]: the “% inhibition at 1 × 10^−6 M” value came to 67%.

Consider `COc1cccc(-c2cc(COc3cccnc3)ccc2C(=O)N[C@@H](CCSC)C(=O)O)c1` [Example 208], for which the “% inhibition at 1 × 10^−6 M” value is 98%.

Staying with this assay, now noted: Inhibition of farnesyltransferase; compound at 1 × 10^−6 M (Table 2); read-out: % inhibition at 1 × 10^−6 M.
With `O=C(N[C@H]1CCOC1=O)c1ccc(NCc2cccnc2)cc1-c1ccccc1` [Example 190, [4-(3-Pyridylmethylamino)-2-phenylbenzoyl]homoserine Lactone], the inhibition at 1 µM was found to be 4%.

`CSCC[C@H](NC(=O)c1ccc(NCc2cccnc2)cc1-c1ccccc1)C(=O)O` [Example 192, [4-(3-Pyridylmethylamino)-2-phenylbenzoyl]methionine]: the inhibition at 1 µM was 95%.

For `CSCC[C@H](NC(=O)c1ccc(NCc2cccnc2)cc1-c1ccccc1)C(=O)OCCC(C)C` [Example 193, [4-(3-Pyridylmethylamino)-2-phenylbenzoyl]methionine Isoamyl Ester], the inhibition at 1 µM was 4%.

On to `CSCC[C@H](NC(=O)c1ccc(NCc2cccnc2)cc1-c1ccccc1)C(N)=O` [Example 196, [4-(3-Pyridylmethylamino)-2-phenylbenzoyl]methionineamide], for which the inhibition at 1 µM was 43%.

In the case of `CNC(=O)[C@H](CCSC)NC(=O)c1ccc(NCc2cccnc2)cc1-c1ccccc1` [Example 197, [4-(3-Pyridylmethylamino)-2-phenylbenzoyl]methioninemethylamide], the inhibition at 1 µM was 1%.

With `COC(=O)[C@H](CCSC)NC(=O)c1ccc(NCc2cccnc2)cc1-c1ccccc1` [Example 201, [4-(3-Pyridylmethylamino)-2-phenylbenzoyl]methionine Methyl Ester], the inhibition at 1 µM is 63%.

On to `CS(=O)(=O)CC[C@H](NC(=O)c1ccc(NC(=O)c2cccnc2)cc1-c1ccccc1)C(=O)O` [Example 203, [4-(3-Pyridylcarbonylamino)-2-phenylbenzoyl]-2-amino-4-(methylsulfonyl)butanoic Acid], for which the inhibition at 1 µM is 76%.

For the compound `CSCC[C@H](NC(=O)c1ccc(COc2cccnc2)cc1-c1ccccc1C)C(=O)O` [Example 204, [4-(3-Pyridyloxymethyl)-2-(2-methylphenyl)benzoyl]methionine], the inhibition at 1 µM was determined as 98%.

As to `CSCC[C@H](NC(=O)c1ccc(COc2cccnc2)cc1-c1cccc(C)c1)C(=O)O` [Example 205, [4-(3-Pyridyloxymethyl)-2-(3-methylphenyl)benzoyl]methionine], the inhibition at 1 µM came out at 98%.

Turning to `COc1ccccc1-c1cc(COc2cccnc2)ccc1C(=O)N[C@@H](CCSC)C(=O)O` [Example 207, [4-(3-Pyridyloxymethyl)-2-(2-methoxyphenyl)benzoyl]methionine], the inhibition at 1 µM is 98%.

For `COc1ccc(-c2cc(COc3cccnc3)ccc2C(=O)N[C@@H](CCSC)C(=O)O)cc1` [Example 209, [4-(3-Pyridyloxymethyl)-2-(4-methoxyphenyl)benzoyl]methionine], the inhibition at 1 µM came out at 74%.

Regarding `COC(=O)[C@H](CCSC)NC(=O)c1ccc(/C=C/c2cccnc2)cc1-c1ccccc1` [Example 210, {4-[2-(Pyrid-3-yl)ethenyl]-2-phenylbenzoyl}methionine Methyl Ester], the inhibition at 1 µM was determined as 5%.

In the case of `CSCC[C@H](NC(=O)c1ccc(C=Cc2cccnc2)cc1-c1ccccc1)C(=O)O` [Example 211, {4-[2-(Pyrid-3-yl)ethenyl]-2-phenylbenzoyl}methionine Sodium Salt], the inhibition at 1 µM was found to be 98%.

With `COC(=O)[C@H](CCSC)NC(=O)c1ccc(CCc2cccnc2)cc1-c1ccccc1` [Example 212, {4-[2-(Pyrid-3-yl)ethyl]-2-phenylbenzoyl}methionine Methyl Ester], the inhibition at 1 µM was 12%.

With `CSCC[C@H](NC(=O)c1ccc(CCc2cccnc2)cc1-c1ccccc1)C(=O)O` [Example 213, {4-[2-(Pyrid-3-yl)ethyl]-2-phenylbenzoyl}methionine Sodium Salt], the inhibition at 1 µM was found to be 98%.

For `CSCC[C@H](NC(=O)c1ccc(C#Cc2cccnc2)cc1-c1ccccc1)C(=O)O` [Example 218, {4-[(Pyrid-3-yl)ethynyl]-2-phenylbenzoyl}methionine Hydrochloride], the inhibition at 1 µM worked out at 89%.

Regarding `CS(=O)(=O)CC[C@H](NC(=O)c1ccc(/C=C/c2cccnc2)cc1-c1ccccc1)C(=O)O` [Example 220, N-{4-[2-(Pyrid-3-yl)ethenyl]-2-phenylbenzoyl]-2-amino-4-(methylsulfonyl)butanoic Acid], the inhibition at 1 µM stood at 92%.

Consider `CC1(C)O[C@H](c2cccnc2)[C@@H](c2ccc(C(=O)N[C@@H](CCS(C)(=O)=O)C(=O)O)c(-c3ccccc3)c2)O1` [Example 222, N-{4-[2,2-Dimethyl-4-(3-pyridyl)-1,3-dioxolan-5-yl-]-2-phenylbenzoyl}-2-amino-4-methanesulfonylbutanoic Acid], for which the inhibition at 1 µM is 41%.

Take `CCCC(=O)OC(c1cccnc1)C(OC(=O)CCC)c1ccc(C(=O)N[C@@H](CCS(C)(=O)=O)C(=O)O)c(-c2ccccc2)c1` (some centres unmarked) [Example 223]: the inhibition at 1 µM amounted to 63%.

`CSCC[C@H](NC(=O)c1ccc(CNCc2c[nH]cn2)cc1-c1ccccc1)C(=O)O` [Example 225, [4-(1H-Imidazol-4-ylmethylaminomethyl)-2-phenylbenzoyl]methionine]: the inhibition at 1 µM was 93%.

As for `COC(=O)[C@H](CCSC)NC(=O)c1ccc(CNc2cccnc2)cc1-c1ccccc1` [Example 226, [4-(Pyrid-3-ylaminomethyl)-2-phenylbenzoyl]methionine Methyl Ester Hydrochloride], the inhibition at 1 µM came to 23%.

As to `CSCC[C@H](NC(=O)c1ccc(CNc2cccnc2)cc1-c1ccccc1)C(=O)O` [Example 227, [4-(Pyrid-3-ylaminomethyl)-2-phenylbenzoyl]methionine], the inhibition at 1 µM amounted to 94%.

Turning to `CCc1nc(NC(=O)c2ccc(COc3cccnc3)cc2-c2ccccc2)sc1C(=O)O` [Example 228], the inhibition at 1 µM worked out at 39%.

Consider `CSCC[C@H](NC(=O)c1ccc(CS(=O)(=O)c2cccnc2)cc1-c1ccccc1)C(=O)O` [Example 233, [4-(3-Pyridylsulfonylmethyl)-2-phenylbenzoyl]methionine], for which the inhibition at 1 µM is 65%.

As for `COC(=O)[C@H](CCSC)NC(=O)c1ccc(COc2cccnc2)cc1-c1ccccc1` [Example 234, [4-(3-Pyridyloxymethyl)-2-phenylbenzoyl]methionine Methyl Ester], the inhibition at 1 µM came out at 4%.

On to `CSCC[C@H](NC(=O)c1ccc(COc2cccnc2)cc1-c1ccccc1)C(=O)O` [Example 235, [4-(3-Pyridyloxymethyl)-2-phenylbenzoyl]methionine], for which the inhibition at 1 µM was 95%.

Regarding `CSCC[C@H](NC(=O)c1ccc(CSc2cccnc2)cc1-c1ccccc1)C(=O)O` [Example 237, [4-(3-Pyridylthiomethyl)-2-phenylbenzoyl]methionine], the inhibition at 1 µM was found to be 98%.

`CS(=O)(=O)CC[C@H](NC(=O)c1ccc(CNc2cccnc2)cc1-c1ccccc1)C(=O)O` [Example 239, N-[4-(3-Pyridylaminomethyl)-2-phenylbenzoyl]-2-amino-4-(methylsulfonyl)butanoic Acid]: the inhibition at 1 µM was 97%.

As for `CSCC[C@H](NC(=O)c1ccc(OCc2cccnc2)cc1-c1ccccc1)C(=O)O` [Example 240, [4-(3-Pyridylmethyloxy)-2-phenylbenzoyl-]methionine], the inhibition at 1 µM came to 98%.

Consider `CSCC[C@H](NC(=O)c1ccc(Sc2cccnc2)cc1-c1ccccc1)C(=O)O` [Example 241], for which the inhibition at 1 µM came to 41%.

With `CSCC[C@H](NC(=O)c1ccc(CSCc2c[nH]cn2)cc1-c1ccccc1)C(=O)O` [Example 242, [4-(1H-Imidazol-4-ylmethylthiomethyl)-2-phenylbenzoyl]methionine], the inhibition at 1 µM stood at 99%.

The same assay, now with this note: read-out: % inhibition at 1 × 10^−6 M.
Turning to `O=C(N[C@@H](CCO)C(=O)O)c1ccc(NCc2cccnc2)cc1-c1ccccc1` [Example 191, Lithium 4-(3-Pyridylmethylamino)-2-phenylbenzoyl-L-homoserinate], the inhibition at 1 µM was determined as 28%.

As to `CSCC[C@H](NC(=O)c1ccc(/C=C/c2cnccc2N(C)C)cc1-c1ccccc1)C(=O)O` [Example 214, {4-[2-(4-Dimethylaminopyrid-3-yl)ethenyl]-2-phenylbenzoyl}methionine Sodium Salt], the inhibition at 1 µM came out at 97%.

Take `CSCC[C@H](NC(=O)c1ccc(/C=C/c2cncc(Br)c2)cc1-c1ccccc1)C(=O)O` [Example 215, {4-[2-(5-Bromopyrid-3-yl)ethenyl]-2-phenylbenzoyl}methionine Sodium Salt]: the inhibition at 1 µM amounted to 82%.

With `CSCC[C@H](NC(=O)c1ccc(/C=C/n2ccnc2)cc1-c1ccccc1)C(=O)O` [Example 217, {4-[2-(1-H-Imidazole-1-yl)ethenyl]-2-phenylbenzoyl}methionine Sodium Salt], the inhibition at 1 µM worked out at 99%.

For the origin of these results see patent publication US6693123B2 (University of Pittsburgh, priority 1995, dated 2004).
